According to PubChem BioAssay (NCI):
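All cell lines were grown in 96-well plates and treated with compound for 48 hours. GI50: concentration for 50% inhibition of growth. TGI: concentration producing complete growth inhibition.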

Tests used:
Assay in all cases: NCI tumour cell line growth inhibition, 48 h
[1] = system: UACC-62 melanoma
[2] = system: RPMI-8226 leukemia
[3] = system: PC-3 prostate
[4] = system: OVCAR-4 ovarian
[5] = system: SK-OV-3 ovarian
[6] = system: SK-MEL-2 melanoma
[7] = system: IGROV1 ovarian
[8] = system: UO-31 renal
[9] = system: MALME-3M melanoma
[10] = system: SNB-19 CNS

Row | Structure (SMILES) | GI50 [1] | TGI [1] | GI50 [2] | TGI [2] | GI50 [3] | TGI [3] | GI50 [4] | TGI [4] | GI50 [5] | TGI [5] | GI50 [6] | TGI [6] | GI50 [7] | TGI [7] | GI50 [8] | TGI [8] | GI50 [9] | TGI [9] | GI50 [10] | TGI [10]
1 | CCn1c(-c2cc3c([nH]c4ccccc43)c(-c3cccc(O)c3)n2)n[nH]c1=S | 1.95 µM | 7.35 µM | 2.5 µM | 8.78 µM | 2.77 µM | 13.3 µM | 3.12 µM | 13.1 µM | 4.32 µM | 17.5 µM | 2.05 µM | 5.81 µM | 4.23 µM | 35.5 µM | 2.24 µM | 11.8 µM | 2.56 µM | 11.4 µM | 4.28 µM | 16.6 µM
2 | CCCCCCCCOC(=O)c1c(C)[nH]c(/C=C2\N=C(c3ccc[nH]3)C=C2OC)c1C | 0.0295 µM | 0.0904 µM | 0.12 µM | 2.11 µM | 0.0467 µM | > 34.8 µM | 0.034 µM | 16.8 µM | 0.899 µM | 15.9 µM | 0.0279 µM | 0.0952 µM | 0.0414 µM | 6.81 µM | 0.0377 µM | 0.108 µM | 0.641 µM | 2.67 µM | 0.551 µM | > 46.3 µM
3 | COc1cccc(CN(C)c2ccc(CO)c(Cl)c2)c1 | 0.19 µM | 1.63 µM | 12.8 µM | > 78.3 µM | 30.6 µM | > 100 µM | 1.19 µM | 29.4 µM | 11.3 µM | > 60.7 µM | 7.78 µM | 42.5 µM | 0.216 µM | 2.6 µM | 14.5 µM | > 83.7 µM | 25.9 µM | > 89.7 µM | 35.2 µM | > 100 µM
4 | CN(Cc1ccc(C(F)(F)F)cc1)CC(O)C(=O)Nc1ccc(Cl)cc1 (centres undefined) | 1.64 µM | 3.13 µM | 1.02 µM | 2.8 µM | 1.77 µM | 3.21 µM | 1 µM | 2.26 µM | 1.48 µM | 2.96 µM | 1.93 µM | 3.62 µM | 1.46 µM | 3.04 µM | 1.29 µM | 2.65 µM | 1.37 µM | 2.81 µM | 1.78 µM | 3.28 µM
5 | CC(C)c1nc(N(C)S(C)(=O)=O)nc(-c2ccc(F)cc2)c1/C=C/[C@@H](O)C[C@@H](O)CC(=O)O | 42.1 µM | > 100 µM | > 100 µM | > 100 µM | 41.7 µM | > 100 µM | > 100 µM | > 100 µM | > 100 µM | > 100 µM | 26.2 µM | > 100 µM | > 100 µM | > 100 µM | > 100 µM | > 100 µM | > 100 µM | > 100 µM | 48.2 µM | > 100 µM
6 | Cc1ncc(C(=O)Nc2ccc(CN3CCN(C)CC3)c(C(F)(F)F)c2)cc1C#Cc1ccc(N)nc1 | 0.153 µM | 0.854 µM | 0.237 µM | 1.58 µM | 0.72 µM | 5.89 µM | 0.122 µM | 3.74 µM | 0.395 µM | 2.56 µM | 0.212 µM | 0.816 µM | 0.118 µM | 0.751 µM | 0.161 µM | 0.793 µM | 0.0868 µM | 0.379 µM | 1.22 µM | 5.06 µM
7 | C#CCNC(=S)N/N=C(\C)c1ccccn1 | 1.12 µM | 4.38 µM | 0.201 µM | 1.7 µM | 0.393 µM | > 100 µM | 0.0519 µM | 1.35 µM | 3 µM | > 100 µM | 6.2 µM | > 100 µM | 0.0522 µM | > 100 µM | 0.333 µM | > 100 µM | 1.51 µM | > 100 µM | 3.43 µM | > 100 µM
8 | O=[N+]([O-])c1nccn1CC(O)CN1CCCCC1 (centres undefined) | – | > 100 µM | – | > 100 µM | – | > 100 µM | – | > 100 µM | – | > 100 µM | – | > 100 µM | – | > 100 µM | – | > 100 µM | – | > 100 µM | – | > 100 µM
9 | C=C/C(C)=C/C[C@]1(C)[C@H](C)[C@@H](OC(=O)CCC)[C@H](O)[C@@]23C(=C[C@H](OC)C[C@@H]12)[C@@H](OC(=O)CCC)O[C@H]3OC(C)=O | 0.529 µM | 1.88 µM | 0.341 µM | 1.65 µM | 0.511 µM | 2.31 µM | 0.351 µM | 1.34 µM | 0.266 µM | 0.806 µM | 0.549 µM | 2.09 µM | 1.53 µM | 3.39 µM | 0.212 µM | 0.586 µM | 0.313 µM | 1.03 µM | 1.66 µM | 3.58 µM
10 | COc1cc2ncnc(-n3ncc4cc(NC(=O)Nc5ccc(Cl)c(Cl)c5)ccc43)c2cc1OC | 1.7 µM | 3.44 µM | 2.11 µM | 7.52 µM | 1.55 µM | 3.24 µM | 1.92 µM | 3.89 µM | 2.04 µM | 4.03 µM | 2.31 µM | 5.01 µM | 2.05 µM | 4.66 µM | 2.04 µM | 4.17 µM | 1.72 µM | 3.89 µM | 2.66 µM | 9.58 µM
11 | CN(C)c1ccc(/C=C2\N=C(c3ccccc3)N(c3cc(C(F)(F)F)ccc3Cl)C2=O)cc1 | > 100 µM | > 100 µM | 35.7 µM | > 100 µM | > 100 µM | > 100 µM | > 69 µM | > 100 µM | > 100 µM | > 100 µM | > 100 µM | > 100 µM | > 100 µM | > 100 µM | > 100 µM | > 100 µM | > 100 µM | > 100 µM | > 100 µM | > 100 µM
12 | Cn1cccc1-c1cc(-c2ccccc2)[nH]c(=O)c1C#N | 95 µM | > 100 µM | > 100 µM | > 100 µM | > 100 µM | > 100 µM | > 100 µM | > 100 µM | > 100 µM | > 100 µM | > 100 µM | > 100 µM | > 100 µM | > 100 µM | > 100 µM | > 100 µM | > 100 µM | > 100 µM | > 100 µM | > 100 µM
13 | O=C1C2=C(C(=O)c3cnccc31)C1C=CC2CC1 (centres undefined) | 1.92 µM | 3.4 µM | 2.28 µM | 5.59 µM | 2.15 µM | – | 0.316 µM | 1.15 µM | 5.58 µM | 10.4 µM | 1.89 µM | 3.52 µM | 2.2 µM | 4.31 µM | 1.95 µM | 3.69 µM | 2.12 µM | 4.45 µM | 5.03 µM | 9.41 µM
14 | COC(=O)C12CC(NC(=O)c3csc([C@@H](C[C@H](C(C)C)N(C)C(=O)[C@@H](NC(=O)[C@H]4CCCCN4C)C4CC4)OC(C)=O)n3)(C1)C2 | 0.0153 µM | > 16.7 µM | 0.00674 µM | > 16.7 µM | 0.0366 µM | > 16.7 µM | 0.427 µM | > 16.7 µM | 0.0735 µM | > 16.7 µM | 0.033 µM | > 16.7 µM | 0.0126 µM | > 16.7 µM | 0.614 µM | > 16.7 µM | 0.0357 µM | > 16.7 µM | 0.0581 µM | > 16.7 µM
15 | O=S1(=O)N(Cc2ccccc2)[C@@H](Cc2ccccc2)[C@H](O)[C@H](O)[C@H](Cc2ccccc2)N1Cc1ccccc1 | 2.86 µM | 6.4 µM | 4.49 µM | > 20 µM | 3.48 µM | 10.4 µM | 2.72 µM | 7.26 µM | 4.15 µM | 10.6 µM | 2.8 µM | 5.76 µM | 3.57 µM | 7.24 µM | 2.73 µM | 5.96 µM | 2.75 µM | 6.37 µM | 4.69 µM | > 20 µM
16 | CCN1CCN(c2cc(C)nc(N(CCCNc3ccnc4cc(Cl)ccc34)Cc3ccc4c(c3)OCO4)n2)CC1 | 1.85 µM | 3.51 µM | 1.8 µM | 4.49 µM | 3.6 µM | > 100 µM | 3.05 µM | 25.1 µM | 14.8 µM | 34.8 µM | 2.14 µM | 4.74 µM | 3.46 µM | 16.7 µM | 1.51 µM | 3.08 µM | 1.87 µM | 3.5 µM | 4.16 µM | 52 µM
17 | Oc1c(Cl)cc(Cl)c2ccc(Cn3cc(-c4cc(C(F)(F)F)cc(C(F)(F)F)c4)nn3)nc12 | 2.15 µM | 6.65 µM | 1.32 µM | 4.74 µM | 2.81 µM | 10.3 µM | 1.27 µM | 2.75 µM | 16.4 µM | 30.1 µM | 2.71 µM | 9.56 µM | 1.5 µM | 3.47 µM | 1.6 µM | 5.51 µM | 1.47 µM | 3.21 µM | 8.28 µM | 21.8 µM
18 | NC(=O)c1cc(N(CCO)CCO)c([N+](=O)[O-])cc1[N+](=O)[O-] | – | > 100 µM | – | > 100 µM | – | > 100 µM | – | > 100 µM | – | > 100 µM | – | > 100 µM | – | > 100 µM | – | > 100 µM | – | > 100 µM | – | > 100 µM
19 | O=C(Nc1ccc(-n2ccc3c(NC(=O)c4ccccc4)ncnc32)cc1)c1cccc(C(F)(F)F)c1 | 0.809 µM | 11.1 µM | 1.6 µM | 33.3 µM | 3.3 µM | 34 µM | 4.31 µM | 31.2 µM | 4.12 µM | 29.4 µM | 1.47 µM | 13.5 µM | 5.63 µM | 27.2 µM | 3.42 µM | 21.7 µM | 9.75 µM | 26.1 µM | 2.13 µM | 33.4 µM
